Key:
Format in all cases: in vivo, human
[1] = Open-label single-dose [14C]LUM001 oral solution study: radioactivity in plasma, whole blood, urine, feces; details: for Radioactive Concentration, Plasma / Radioactive Concentration, Whole Blood: 5 mg [14C]LUM001 oral solution
Description: This was an open-label, one-period, single-dose study of a [^14C]LUM001 oral solution. Eight healthy male subjects received an oral solution of 5 mg [^14C]LUM001 (containing approximately […] per dose). Blood samples were collected at predose and for 72 hours postdose, urine samples were collected predose and for 168 hours postdose and feces were collected predose and for 216 hours postdose. Plasma, whole blood, urine and fecal samples were analyzed for total radioactivity, and selected fecal samples were analyzed for LUM001 and relevant metabolite concentrations. In addition, metabolic profiles in selected fecal samples were obtained using high performance liquid radio chromatography (HPLRC).

[2] = tested on: serum bile acids; experiment: Fasting and post-prandial peak serum bile acids in children and adolescents after eight days of LUM001; details: LUM001 treated patients
Description: The efficacy of LUM001 was determined by measuring total serum bile acids after eight days of dosing in children and adolescents under the age of eighteen. Thirty minutes before the next drug administration, at approximately 8 am in the morning, serum bile acid levels were measured. The child had refrained from food for 12 hours prior to this sample thus providing a fasted level of serum bile acid. After breakfast, serum bile acids were measured for up to the next 4 hours (8 am to noon) and the peak serum bile acid concentration noted.

[3] = tested on: fecal bile acids; experiment: Phase 1 ascending multiple oral doses of LUM001 in healthy adults: fecal bile acid analysis; details: 28 days
Description: This Phase 1 study was a randomized, double-blind, placebo-controlled study of ascending multiple oral doses of LUM001 in healthy, adult subjects. This study was conducted at a single center. There were 13 LUM001 dosing panels: 10, 20, 60, 100, and 20 mg every morning (qAM) (2) (i.e., the regimen was tested a second time in the study), 5 mg every evening (qPM), 0.5, 1, 2.5, 5, 2.5 (2), 5 (2), and 0.5 to 5 mg qAM dose titration. Most of the dosing panels included subjects treated with matching placebo. No subject participated in more than 1 dosing panel. […]
On Day 1 of the Treatment Period, subjects who qualified for enrollment were randomized in the order in which they were admitted to the research facility. […] The safety and tolerability of LUM001 were evaluated by physical examination, ascertainment of adverse signs and symptoms, and clinical laboratory studies. […]
Fecal samples were collected for all panels except the dose-titration panel, 2.5 (2) and 5 mg (2), on Days 9 through 14 and 23 through 28 (data shown in FIG. 6; *p<0.05; **p<0.01 compared to placebo). Twenty-four hour FBA excretions were quantified by Pharmacia for Days 9 through 14 and 23 through 28. […] The weight of each 24-hour fecal collection was recorded on the CRFs. […]
An aliquot for each 24-hour fecal sample collected on Days 23 through 28 was combined, homogenized, and analyzed for bile acid species concentrations by ANAPHARM. […]

With `CCCCC1(CCCC)CS(=O)(=O)c2ccc(N(C)C)cc2[C@@H](c2ccc(OCc3ccc(C[N+]45CCN(CC4)CC5)cc3)cc2)[C@H]1O` [LUM001] as the compound, how does the “Radioactive Concentration, Plasma” value ([1]; 0.5 hr) read?
The value was “BLQ”.

What about the “Radioactive Concentration, Plasma” value ([1]; 1 hr) of the same compound?
Its value is “BLQ”.

And the “Radioactive Concentration, Whole Blood” value ([1]; 1 hr)?
Its value is 0.000 ng equivalents/g.

And the “Radioactive Concentration, Plasma” value ([1]; 1.5 hr)?
The value was “BLQ”.

And the “Radioactive Concentration, Plasma” value ([1]; 2 hr)?
Its value is “BLQ”.

And the “Radioactive Concentration, Plasma” value ([1]; 2.5 hr)?
Its value is “BLQ”.

What about the “Radioactive Concentration, Plasma” value ([1]; 3 hr) of the same compound?
Its value is “BLQ”.

What about the “Radioactive Concentration, Plasma” value ([1]; 4 hr) of the same compound?
Its value is “BLQ”.

What about the “Radioactive Concentration, Whole Blood” value ([1]; 4 hr) of the same compound?
Its value is 0.000 ng equivalents/g.

And the “Radioactive Concentration, Plasma” value ([1]; 6 hr)?
Its value is “BLQ”.

What about the “Radioactive Concentration, Plasma” value ([1]; 8 hr) of the same compound?
The value was “BLQ”.

What about the “Radioactive Concentration, Plasma” value ([1]; 12 hr) of the same compound?
Its value is “BLQ”.

What about the “Radioactive Concentration, Plasma” value ([1]; 16 hr) of the same compound?
Its value is 0.000 ng equivalents/mL.

What about the “Radioactive Concentration, Plasma” value ([1]; 24 hr) of the same compound?
The value was “BLQ”.

What about the “Radioactive Concentration, Plasma” value ([1]; 36 hr) of the same compound?
The value was 0.000 ng equivalents/mL.

What about the “Radioactive Concentration, Plasma” value ([1]; 48 hr) of the same compound?
The value was “BLQ”.

And the “Radioactive Concentration, Plasma” value ([1]; 60 hr)?
Its value is “BLQ”.

And the “Radioactive Concentration, Plasma” value ([1]; 72 hr)?
The value was “BLQ”.

What about the “Radioactive Concentration, Whole Blood” value ([1]; −0.5 hr) of the same compound?
The value was 0.000 ng equivalents/g.

And the “Percent of Dose” value ([1]; analyte in feces, mean)?
The value was 65.0 ± 3.1%.

And the “Cumulative % of Total Dose, Total (Urine and Feces)” value ([1]; radioactivity)?
Its value is 72.532%.

What about the “Cumulative % of Total Dose, Urine” value ([1]; radioactivity, 0-2 hr) of the same compound?
Its value is 0.005%.

What about the “Cumulative % of Total Dose, Feces” value ([1]; radioactivity, 0-24 hr) of the same compound?
The value was 30.376%.

What about the “Cumulative % of Total Dose, Urine” value ([1]; radioactivity, 2-4 hr) of the same compound?
Its value is 0.012%.

What about the “Cumulative % of Total Dose, Urine” value ([1]; radioactivity, 4-8 hr) of the same compound?
The value was 0.028%.

And the “Cumulative % of Total Dose, Urine” value ([1]; radioactivity, 8-12 hr)?
The value was 0.041%.

And the “Cumulative % of Total Dose, Urine” value ([1]; radioactivity, 12-24 hr)?
Its value is 0.058%.

What about the “Cumulative % of Total Dose, Feces” value ([1]; radioactivity, 24-48 hr) of the same compound?
The value was 49.878%.

And the “Cumulative % of Total Dose, Urine” value ([1]; radioactivity, 24-48 hr)?
The value was 0.057%.

What about the “Cumulative % of Total Dose, Feces” value ([1]; radioactivity, 48-72 hr) of the same compound?
The value was 67.630%.

What about the “Cumulative % of Total Dose, Urine” value ([1]; radioactivity, 48-72 hr) of the same compound?
Its value is 0.062%.

And the “Cumulative % of Total Dose, Feces” value ([1]; radioactivity, 72-96 hr)?
The value was 69.653%.

What about the “Cumulative % of Total Dose, Urine” value ([1]; radioactivity, 72-96 hr) of the same compound?
The value was 0.063%.

What about the “Cumulative % of Total Dose, Feces” value ([1]; radioactivity, 96-120 hr) of the same compound?
The value was 71.606%.

What about the “Cumulative % of Total Dose, Urine” value ([1]; radioactivity, 96-120 hr) of the same compound?
The value was 0.063%.

What about the “Cumulative % of Total Dose, Feces” value ([1]; radioactivity, 120-144 hr) of the same compound?
Its value is 71.771%.

And the “Cumulative % of Total Dose, Urine” value ([1]; radioactivity, 120-144 hr)?
The value was 0.064%.

And the “Cumulative % of Total Dose, Feces” value ([1]; radioactivity, 144-168 hr)?
Its value is 71.815%.

And the “Cumulative % of Total Dose, Urine” value ([1]; radioactivity, 144-168 hr)?
The value was 0.066%.

And the “Cumulative % of Total Dose, Feces” value ([1]; radioactivity, 168-192 hr)?
The value was 71.885%.

What about the “Cumulative % of Total Dose, Feces” value ([1]; radioactivity, 192-216 hr) of the same compound?
Its value is 71.885%.

What about the “Cumulative % of Total Dose, Feces” value ([1]; radioactivity, incl. Toilet Paper (cumulative recovery from first five fecal samples)) of the same compound?
The value was 72.466%.

And the “decrease in fasting serum bile acid level vs placebo” value [2]?
The value was 24%.

What about the “decrease in post-prandial peak serum bile acid level vs placebo” value [2] of the same compound?
The value was 23%.

What about the “effect on fecal bile acids” value [3] of the same compound?
Its value is “significant increase”.

— US20140275090A1, “BILE ACID RECYCLING INHIBITORS FOR TREATMENT OF PRIMARY SCLEROSING CHOLANGITIS AND INFLAMMATORY BOWEL DISEASE” (Lumena Pharmaceuticals, Inc., priority 2013, published 2014)
